From ChEMBL document CHEMBL1122717, “Oxidation of sparteines by cytochrome P-450: evidence against the formation of N-oxides” (J Med Chem, 1984)

Organism: Rattus norvegicus
Assay: Compound was evaluated for percent inhibition of antiarrhythmic activity catalyzed by cytochrome P-450 UT-H in liver microsomes of rats
Format: functional
Settings: dose or concentration not given here

C1CCN2C[C@@H]3C[C@@H](CN4CCCC[C@@H]34)[C@H]2C1
inhibition: > 95%
